Patent publication US20080234381A1, “Novel Trifluoromethoxy-Substituted Aryl Anilides” (Novo Nordisk A/S, priority 2005, published 2008)

melting point [°C] | SMILES
178 | N#Cc1ccc(NC(=O)c2ccc3ccccc3c2O)c(OC(F)(F)F)c1 [Example 1, 1-Hydroxy-naphthalene-2-carboxylic acid(4-cyano-2-trifluoromethoxy-phenyl)-amide]
169 | N#Cc1ccc(NC(=O)c2c(O)ccc3ccccc23)c(OC(F)(F)F)c1 [Example 2, 2-Hydroxy-naphthalene-1-carboxylic acid(4-cyano-2-trifluoromethoxy-phenyl)-amide]
248 | N#Cc1ccc(NC(=O)c2cc3ccccc3cc2O)c(OC(F)(F)F)c1 [Example 3, 3-Hydroxy-naphthalene-2-carboxylic acid(4-cyano-2-trifluoromethoxy-phenyl)-amide]
